# Columns and labels:
# [1] = molecular target: LSD-1 (Homo sapiens, UniProt O60341); assay: Cellular thermal shift assay (CETSA) in PC-9 cells, LSD-1; type: cell-based; details: 100 μM
# Text: To date activity of T151742 towards other flavoenzymes has not been identified at this time. We utilized the Cellular Thermal Shift Assay (CETSA) to determine target engagement of T151742 in vitro using the non-small cell lung cancer (NSCLC) cell line PC-9. The EGFR driven PC-9 cell line was chosen as new treatment strategies are needed in EGFR driven NSCLC as most patients relapse and become resistant to current targeted therapies with development of further mutations such as T790M, C797S as well as emergence of EGFR independent tumors^42, 43. […] First, we determined the aggregation temperature (Tagg) of ERO1α, ERO1β, and LSD-1, which are all FAD dependent enzymes and potential in vitro targets of T15742. […]
# Upon addition of T151742, Tagg was quantified for ERO1α, ERO1β, and LSD-1. Quantification of the average of n=3 independent experiments based on western blot analysis for ERO1α, ERO1β, and LSD-1. […] Cellular viability was determined by MTT assay. n=3 independent experiments performed in quadruplicates. ****p<0.0001; by two-way ANOVA.
# Cell Lines: PC-9 cell line used was obtained from Sigma Aldrich and grown in RPMI 1640 medium with 10% fetal bovine serum and 1% penicillin/streptomycin. […] Plate was then read on the BioTek Cytation 5 at 530/590 nm. […]
# [2] = molecular target: T1, MAO-A (Homo sapiens, UniProt P21397); details: cited from earlier work
# T1 sequence (P21397 1-527): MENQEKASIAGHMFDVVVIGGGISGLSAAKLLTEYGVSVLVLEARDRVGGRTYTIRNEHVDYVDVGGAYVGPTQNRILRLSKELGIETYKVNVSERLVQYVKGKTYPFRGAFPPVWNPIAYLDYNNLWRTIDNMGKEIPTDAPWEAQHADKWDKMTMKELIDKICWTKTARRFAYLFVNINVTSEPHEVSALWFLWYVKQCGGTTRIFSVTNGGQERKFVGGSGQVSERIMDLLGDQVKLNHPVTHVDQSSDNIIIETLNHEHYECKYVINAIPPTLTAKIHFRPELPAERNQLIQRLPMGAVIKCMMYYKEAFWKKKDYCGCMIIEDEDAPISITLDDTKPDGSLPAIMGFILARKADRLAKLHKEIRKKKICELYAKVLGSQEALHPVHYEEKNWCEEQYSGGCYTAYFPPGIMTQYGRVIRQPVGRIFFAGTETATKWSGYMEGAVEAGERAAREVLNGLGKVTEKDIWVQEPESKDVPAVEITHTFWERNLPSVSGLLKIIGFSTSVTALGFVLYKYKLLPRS
smiles,measurement,setting,value
CN(C)c1ccc(/C=C2\Oc3cc(O)ccc3C2=O)cc1 [Compound T151742],change of Tagg for LSD-1,[1],did not change
same,inhibition of / activity against MAO-A,[2],showed activity

# Source: patent US20250064773A1, “TARGETING ERO1 ALPHA WITH AURONE DERIVATIVES” (West Virginia University Board of Governors on behalf of …, priority 2021, published 2025)
